The structures appear in SMILES notation. Like-named read-outs stand apart in the source and are kept apart here.

The record followed here is patent US20160355530A1, “HEPATITIS C INHIBITORS AND USES THEREOF” (AbbVie Inc., priority 2010, published 2016).

Experiment [1] concerns the target T1, HCV NS5B polymerase 1b BK strain (Hepatitis C virus genotype 1b, UniProt P26663).
T1 construct: six-histidine tag; made in house; host or cells: E. coli
Kind of experiment: HCV NS5B polymerase enzymatic inhibition assay, strain 1b BK. The class given is biochemical. Particulars: enzyme, strain 1b BK; read-out: HCV Polymerase Strain 1b BK IC50. An outline of the steps: (§1)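 Recombinant NS5B (residues 1–570, His-tagged, E. coli-expressed) copied 5 nM of a 2.1 kb HCV 1b negative-strand 3′-end RNA template with 20 μM CTP, 20 μM ATP and 0.284 μM [3H]UTP for 3 h at 30 °C. Spermine-precipitated RNA was filter-captured and counted, and IC50 was fitted by nonlinear regression.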

For experiment [2], the system named is chimeric replicon with genotype 2b NS5B. Kind of experiment: microbe, parasite or virus in culture. It counts as cell-based, HCV genotype 2b. Particulars: Hepatitis C virus, read-out: 2b chimera 5% FBS EC50.
The test system of experiment [3] is HCV 1b-BB7 subgenomic replicon. Kind of experiment: microbe, parasite or virus in culture. The class given is cell-based, HCV genotype 1b. Particulars: Hepatitis C virus, stable replicon. For orientation: A replicon is a self-replicating genome or part of one, used to study replication in cells.
Experiment [4] relates to chimeric replicon with genotype 4a NS5B. Kind of experiment: microbe, parasite or virus in culture. It counts as cell-based, HCV genotype 4a. Particulars: Hepatitis C virus, read-out: 4a chimera 5% FBS EC50.
Experiment [5] relates to chimeric replicon with 2a-J6CF-derived NS5B. Kind of experiment: microbe, parasite or virus in culture. It counts as cell-based, HCV genotype 2a. Particulars: Hepatitis C virus, read-out: 2a chimera 5% FBS EC50.
Experiment [6] concerns chimeric replicon with genotype 3a NS5B. Kind of experiment: microbe, parasite or virus in culture. The class given is cell-based, HCV genotype 3a. Particulars: Hepatitis C virus, read-out: 3a chimera 5% FBS EC50.
Experiment [7] concerns HCV 1a-H77 transient subgenomic replicon in Huh-7 derived cell line. Kind of experiment: microbe, parasite or virus in culture. Particulars: Hepatitis C virus, Huh-7; transient replicon, 5% FBS; read-out: Transient Replicon 1a H77 5% FBS EC50. It counts as cell-based, HCV genotype 1a. In short, it runs like this: (§2)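 Subgenomic replicon RNA (no Neo gene) electroporated into Huh-7-derived cells, plated at 5×10^3 cells/well; a 4 h plate gauged transfection efficiency. Cells exposed to 3-fold compound dilutions (0.5% DMSO) for 4 days at 37° C, then lysed for luciferase readout; EC50 calculated.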

Experiment [8] has as its system HCV 1a-H77-C316Y transient subgenomic replicon in Huh-7 derived cell line. Kind of experiment: microbe, parasite or virus in culture. It counts as cell-based, HCV genotype 1a. Particulars: for EC50: Hepatitis C virus, Huh-7, read-out: Transient Replicon 1a H77-C316Y 5% FBS EC50; for Transient Replicon Fold Resistance C316Y/1a: ratio of transient replicon EC50s, C316Y / 1a H77. In short, it runs like this: as §2

Experiment [9] relates to HCV 1a-H77 subgenomic replicon. Kind of experiment: microbe, parasite or virus in culture. It counts as cell-based, HCV genotype 1a. Particulars: Hepatitis C virus, stable replicon.
In experiment [10] the target is T2, HCV NS5B polymerase 1a-H77-C316Y (Hepatitis C virus genotype 1a, UniProt P27958, C2736Y).
T2 construct: six-histidine tag; made in house; host or cells: E. coli
Kind of experiment: biochemical. More on the design: species or system HCV genotype 1a. In short, it runs like this:
as §1

The test system of experiment [11] is HCV NS5B polymerase 1a-H77-C316Y. Kind of experiment: biochemical. Also on record: species or system HCV genotype 1a. Particulars: ratio of enzyme IC50s, 1a H77-C316Y / 1a H77. An outline of the steps: as §1
Experiment [12] addresses T3, HCV NS5B polymerase 1a-H77 (Hepatitis C virus genotype 1a, UniProt P27958).
T3 construct: six-histidine tag; made in house; host or cells: E. coli
Kind of experiment: biochemical. More on the design: species or system HCV genotype 1a. Particulars: enzyme, strain 1a H77; read-out: HCV Polymerase Strain 1a H77 IC50. In short, it runs like this:
as §1

The mark [13] stands for this setting: strain 1b BB7, 5% FBS + 40% human plasma, read-out: 1b BB7 5% FBS + 40% Human Plasma EC50.
[14] abbreviates: strain 1b BB7, 5% FBS, no human plasma, read-out: 1b BB7 5% FBS EC50.
[15] abbreviates: strain 1b BB7, 5% FBS, read-out: 1b BB7 5% FBS EC50.
Setting [16] is: 5% FBS, absence of human plasma, read-out: Stable Replicon 1a H77 5% FBS EC50.
[17] abbreviates: strain 1a H77, 5% FBS + 40% human plasma, read-out: 1a H77 5% FBS + 40% Human Plasma EC50.
Setting [18] is: strain 1a H77, 5% FBS, no human plasma, read-out: 1a H77 5% FBS EC50.
Setting [19] is: strain 1a H77, 5% FBS, read-out: 1a H77 5% FBS EC50.

T2 sequence (P27958 2421-2990 C2736Y): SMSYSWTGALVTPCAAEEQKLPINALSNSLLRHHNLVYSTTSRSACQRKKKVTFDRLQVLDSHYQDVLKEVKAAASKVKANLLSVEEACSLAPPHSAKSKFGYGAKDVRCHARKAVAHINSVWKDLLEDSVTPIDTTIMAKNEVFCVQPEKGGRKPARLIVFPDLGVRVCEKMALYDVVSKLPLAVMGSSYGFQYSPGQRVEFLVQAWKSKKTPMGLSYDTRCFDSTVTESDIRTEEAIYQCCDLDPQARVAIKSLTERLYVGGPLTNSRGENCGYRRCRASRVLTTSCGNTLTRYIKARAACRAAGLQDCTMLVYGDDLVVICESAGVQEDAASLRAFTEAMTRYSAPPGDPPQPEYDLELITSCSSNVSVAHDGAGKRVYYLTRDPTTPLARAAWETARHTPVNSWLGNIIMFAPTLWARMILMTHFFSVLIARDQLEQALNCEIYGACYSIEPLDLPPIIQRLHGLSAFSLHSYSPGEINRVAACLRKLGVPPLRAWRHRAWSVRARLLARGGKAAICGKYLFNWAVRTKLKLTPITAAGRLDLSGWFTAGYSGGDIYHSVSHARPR
T1 sequence (P26663 2420-2989): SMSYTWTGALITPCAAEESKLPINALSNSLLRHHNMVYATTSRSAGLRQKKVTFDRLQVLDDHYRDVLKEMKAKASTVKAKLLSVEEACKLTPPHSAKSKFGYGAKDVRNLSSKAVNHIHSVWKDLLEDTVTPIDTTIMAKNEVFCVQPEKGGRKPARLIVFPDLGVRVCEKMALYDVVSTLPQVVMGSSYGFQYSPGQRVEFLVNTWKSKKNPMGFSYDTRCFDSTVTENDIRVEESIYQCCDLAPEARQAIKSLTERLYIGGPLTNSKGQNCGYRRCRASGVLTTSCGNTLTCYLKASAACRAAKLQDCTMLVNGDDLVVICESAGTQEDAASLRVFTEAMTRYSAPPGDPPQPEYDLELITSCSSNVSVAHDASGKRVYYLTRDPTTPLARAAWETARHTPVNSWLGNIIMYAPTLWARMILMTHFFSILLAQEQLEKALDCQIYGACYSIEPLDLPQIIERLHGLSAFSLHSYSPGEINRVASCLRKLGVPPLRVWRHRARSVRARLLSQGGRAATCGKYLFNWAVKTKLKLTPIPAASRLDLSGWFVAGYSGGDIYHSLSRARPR
T3 sequence (P27958 2421-2990): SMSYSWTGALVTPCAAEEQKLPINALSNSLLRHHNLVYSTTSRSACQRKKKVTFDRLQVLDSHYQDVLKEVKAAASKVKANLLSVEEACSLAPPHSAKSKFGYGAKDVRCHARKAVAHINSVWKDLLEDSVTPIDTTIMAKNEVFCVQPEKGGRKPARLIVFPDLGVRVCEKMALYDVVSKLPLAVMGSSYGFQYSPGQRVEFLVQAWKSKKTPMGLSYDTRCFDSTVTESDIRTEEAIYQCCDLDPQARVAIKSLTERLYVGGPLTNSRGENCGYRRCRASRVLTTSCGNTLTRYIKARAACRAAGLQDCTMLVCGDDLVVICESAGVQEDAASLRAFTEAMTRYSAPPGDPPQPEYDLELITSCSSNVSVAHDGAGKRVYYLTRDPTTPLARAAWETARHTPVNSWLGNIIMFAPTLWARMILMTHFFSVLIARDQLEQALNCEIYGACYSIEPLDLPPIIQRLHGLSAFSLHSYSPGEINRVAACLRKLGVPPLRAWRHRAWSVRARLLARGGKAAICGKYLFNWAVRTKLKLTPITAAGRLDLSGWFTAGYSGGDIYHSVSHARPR

What is called IC50 is the point on the concentration scale where inhibition reaches its midpoint. What is called EC50 is the midpoint of the concentration-response curve. `CS(=O)(=O)N(CC#N)c1cc2oc(-c3ccc(F)cc3)c(-c3ncc[nH]3)c2cc1C1CC1` [Example 63, N-(cyanomethyl)-N-[5-cyclopropyl-2-(4-fluorophenyl)-3-(1H-imidazol-2-yl)-1-benzofuran-6-yl]methanesulfonamide]: the IC50 was determined as 47 nM in [1], 2100 nM in experiment [10] and 4.5 nM in [12]. Besides, the EC50 in experiment [2] is 108 nM; in [3] (setting [13]) it was 195 nM; in experiment [3] (setting [14]) it was 14.4 nM; in experiment [3] (setting [15]), 14.4 nM; in experiment [4], 702 nM; in [5], 131 nM. Besides, the EC50 in experiment [6] is 6.8 nM; in [7], 75.6 nM; in experiment [8] it was 1900 nM; in experiment [9] (setting [16]), 67 nM; in experiment [9] (setting [17]), 1160 nM; in [9] (setting [18]), 67 nM. Besides, the EC50 in experiment [9] (setting [19]) was 67 nM. Besides, the “Transient Replicon Fold Resistance C316Y/1a” value in [8] amounted to 25 fold. The “C316Y/1a Fold Resistance” value in experiment [11] amounted to 470 fold.

As to `CS(=O)(=O)N(CCCO)c1cc2oc(-c3ccc(F)cc3)c(-c3ncc[nH]3)c2cc1C1CC1` [Example 65, N-[5-cyclopropyl-2-(4-fluorophenyl)-3-(1H-imidazol-2-yl)-1-benzofuran-6-yl]-N-(3-hydroxypropyl)methanesulfonamide], the figures for the IC50 in [1], in experiment [10] and in experiment [12] were 52 nM, 166 nM and 6.9 nM, respectively. Moreover, the EC50 in [2] was 68.5 nM; in experiment [3] (setting [13]), 59.5 nM; in experiment [3] (setting [14]) it was 6.8 nM; in [3] (setting [15]), 6.8 nM; in experiment [4], 87.5 nM; in experiment [5] it was 42.4 nM. In addition, the EC50 in experiment [6] turned out to be 4 nM; in experiment [7], 5.4 nM; in [8], 228 nM; in [9] (setting [16]), 10.3 nM; in [9] (setting [17]), 121 nM; in experiment [9] (setting [18]) it was 10.3 nM. The concentration for a half-maximal effect (EC50) in experiment [9] (setting [19]) is 10.3 nM. The “Transient Replicon Fold Resistance C316Y/1a” value in experiment [8] is 42 fold. Also, in experiment [11], the “C316Y/1a Fold Resistance” value was determined as 24 fold.

On to `CS(=O)(=O)N(CCCS(N)(=O)=O)c1cc2oc(-c3ccc(F)cc3)c(-c3ncc[nH]3)c2cc1C1CC1` [Example 80, 3-{[5-cyclopropyl-2-(4-fluorophenyl)-3-(1H-imidazol-2-yl)-1-benzofuran-6-yl](methylsulfonyl)amino}propane-1-sulfonamide], for which the IC50 in experiment [1] came out at 16 nM; in experiment [10], 55 nM; in [12], 5 nM. Further, the EC50 in [2] came to 283 nM; in [3] (setting [13]), 72 nM; in experiment [3] (setting [14]), 10.7 nM; in [3] (setting [15]) it was 10.7 nM; in experiment [4], 373 nM; in [5] it was 211 nM. The EC50 in [6] was determined as 12.2 nM; in [7], 8.3 nM; in experiment [8] it was 162 nM; in experiment [9] (setting [16]) it was 12.1 nM; in experiment [9] (setting [17]), 52 nM; in experiment [9] (setting [18]), 12.1 nM. Further, the EC50 in experiment [9] (setting [19]) amounted to 12.1 nM. Further, the “Transient Replicon Fold Resistance C316Y/1a” value in experiment [8] was determined as 20 fold. Also, the “C316Y/1a Fold Resistance” value in [11] came to 11 fold.

Turning to `CS(=O)(=O)N(CCCCF)c1cc2oc(-c3ccc(F)cc3)c(-c3ncc[nH]3)c2cc1C1CC1` [Example 83, N-[5-cyclopropyl-2-(4-fluorophenyl)-3-(1H-imidazol-2-yl)-1-benzofuran-6-yl]-N-(4-fluorobutyl)methanesulfonamide], the half-inhibitory concentration (IC50) is 26 nM in experiment [1], 79 nM in [10] and 5.5 nM in experiment [12]. The EC50 in experiment [2] worked out at 47.3 nM; in experiment [3] (setting [13]), 96 nM; in experiment [3] (setting [14]) it was 8.19 nM; in [3] (setting [15]), 8.2 nM; in experiment [4], 67.3 nM; in experiment [5] it was 46.7 nM. For the same molecule, the EC50 was 6.1 nM in experiment [6]; 6 nM in experiment [7]; 128 nM in [8]; 6.9 nM in experiment [9] (setting [16]); 89 nM in experiment [9] (setting [17]); 6.9 nM in experiment [9] (setting [18]). For the same molecule, in experiment [9] (setting [19]), the EC50 was 6.9 nM. Also, the “Transient Replicon Fold Resistance C316Y/1a” value in [8] turned out to be 21 fold. In [11], the “C316Y/1a Fold Resistance” value came to 14 fold.

As to `CC(C)(O)C(O)CCN(c1cc2oc(-c3ccc(F)cc3)c(-c3ncc[nH]3)c2cc1C1CC1)S(C)(=O)=O` (stereo not drawn) [Example 84, N-[5-cyclopropyl-2-(4-fluorophenyl)-3-(1H-imidazol-2-yl)-1-benzofuran-6-yl]-N-(3,4-dihydroxy-4-methylpentyl)methanesulfonamide], the IC50 in experiment [1] amounted to 19 nM; in experiment [10], 41 nM; in experiment [12] it was 3.5 nM. The EC50 in experiment [2] was found to be 30.9 nM; in [3] (setting [13]) it was 146 nM; in [3] (setting [14]), 14.1 nM; in [3] (setting [15]), 14.1 nM; in [4] it was 142 nM; in [5], 103 nM. Further, the EC50 in [6] is 15.1 nM; in [7] it was 25.4 nM; in experiment [8], 184 nM; in experiment [9] (setting [16]), 14.9 nM; in [9] (setting [17]), 218 nM; in [9] (setting [18]), 14.9 nM. Also, in experiment [9] (setting [19]), the EC50 stood at 14.9 nM. Besides, the “Transient Replicon Fold Resistance C316Y/1a” value in [8] was 7 fold. The “C316Y/1a Fold Resistance” value in experiment [11] was determined as 12 fold.

Consider `CNS(=O)(=O)CCCN(c1cc2oc(-c3ccc(F)cc3)c(-c3ncc[nH]3)c2cc1C1CC1)S(C)(=O)=O` [Example 86, 3-{[5-cyclopropyl-2-(4-fluorophenyl)-3-(1H-imidazol-2-yl)-1-benzofuran-6-yl](methylsulfonyl)amino}-N-methylpropane-1-sulfonamide], for which the half-maximal inhibitory concentration (IC50) came out at 18 nM in experiment [1], 56 nM in experiment [10] and 5 nM in [12]. The concentration giving a half-maximal response (EC50) in [2] came to 137 nM; in experiment [3] (setting [13]), 41 nM; in experiment [3] (setting [14]) it was 6.7 nM; in experiment [3] (setting [15]), 6.7 nM; in [4] it was 108 nM; in [5], 64.2 nM. Also, the EC50 in experiment [6] is 11.5 nM; in experiment [7] it was 2.8 nM; in [8] it was 92.1 nM; in [9] (setting [16]), 12.3 nM; in experiment [9] (setting [17]) it was 86 nM; in experiment [9] (setting [18]), 12.3 nM. For the same molecule, the EC50 in experiment [9] (setting [19]) was 12.3 nM. Further, in experiment [8], the “Transient Replicon Fold Resistance C316Y/1a” value stood at 33 fold. Besides, the “C316Y/1a Fold Resistance” value in [11] is given as 11 fold.

As to `CS(=O)(=O)CCN(c1cc2oc(-c3ccc(F)cc3)c(-c3ncc[nH]3)c2cc1C1CC1)S(C)(=O)=O` [Example 87, N-[5-cyclopropyl-2-(4-fluorophenyl)-3-(1H-imidazol-2-yl)-1-benzofuran-6-yl]-N-[2-(methylsulfonyl)ethyl]methanesulfonamide], the IC50 in [1] was found to be 23 nM; in [10], 156 nM; in experiment [12] it was 6 nM. Also, the half-maximal effective concentration (EC50) in experiment [2] was found to be 84.9 nM; in [3] (setting [13]) it was 57 nM; in experiment [3] (setting [14]), 4.9 nM; in experiment [3] (setting [15]), 4.9 nM; in [4], 48.4 nM; in experiment [5] it was 64.5 nM. Moreover, the EC50 came to 3.2 nM in experiment [6]; 6.1 nM in [7]; 155 nM in experiment [8]; 7.6 nM in [9] (setting [16]); 65 nM in experiment [9] (setting [17]); 7.6 nM in experiment [9] (setting [18]). Besides, in experiment [9] (setting [19]), the EC50 stood at 7.6 nM. Further, in [8], the “Transient Replicon Fold Resistance C316Y/1a” value turned out to be 25 fold. The “C316Y/1a Fold Resistance” value in experiment [11] turned out to be 26 fold.
